# According to patent publication US20260151383A1, “HETEROCYCLIC COMPOUNDS AND USES THEREOF” (KayoThera Inc., priority 2022, published 2026):
# Assays:
# Type in all cases: biochemical
# Conditions in all cases: recombinant enzyme, 20° C., activity level classes
# [1] = molecular target: T1, hALDH1a3 (Homo sapiens, UniProt P47895); assay: Aldh1a3 enzyme inhibition assay (resorufin fluorescence), human enzyme
# T1 construct: made in house; host or cells: E. coli BL21-DE3
# T1 sequence (P47895 1-512): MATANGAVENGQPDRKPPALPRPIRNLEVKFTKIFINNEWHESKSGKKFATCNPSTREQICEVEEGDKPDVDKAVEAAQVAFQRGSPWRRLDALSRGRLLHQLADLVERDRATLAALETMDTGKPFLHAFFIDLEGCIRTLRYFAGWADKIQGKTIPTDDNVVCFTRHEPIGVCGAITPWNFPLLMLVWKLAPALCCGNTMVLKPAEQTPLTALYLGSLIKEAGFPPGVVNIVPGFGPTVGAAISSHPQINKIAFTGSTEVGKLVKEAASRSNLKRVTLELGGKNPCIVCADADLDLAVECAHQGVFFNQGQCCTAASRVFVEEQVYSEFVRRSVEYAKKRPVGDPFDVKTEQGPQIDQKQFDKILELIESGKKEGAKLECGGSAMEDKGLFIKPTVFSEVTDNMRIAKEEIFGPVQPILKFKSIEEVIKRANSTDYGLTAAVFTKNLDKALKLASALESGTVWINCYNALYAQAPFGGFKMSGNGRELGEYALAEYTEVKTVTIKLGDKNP
# [2] = molecular target: T2, mALDH1a3 (Mus musculus, UniProt Q9JHW9); assay: Aldh1a3 enzyme inhibition assay (resorufin fluorescence), mouse enzyme
# T2 construct: made in house; host or cells: E. coli BL21-DE3
# T2 sequence (Q9JHW9 1-512): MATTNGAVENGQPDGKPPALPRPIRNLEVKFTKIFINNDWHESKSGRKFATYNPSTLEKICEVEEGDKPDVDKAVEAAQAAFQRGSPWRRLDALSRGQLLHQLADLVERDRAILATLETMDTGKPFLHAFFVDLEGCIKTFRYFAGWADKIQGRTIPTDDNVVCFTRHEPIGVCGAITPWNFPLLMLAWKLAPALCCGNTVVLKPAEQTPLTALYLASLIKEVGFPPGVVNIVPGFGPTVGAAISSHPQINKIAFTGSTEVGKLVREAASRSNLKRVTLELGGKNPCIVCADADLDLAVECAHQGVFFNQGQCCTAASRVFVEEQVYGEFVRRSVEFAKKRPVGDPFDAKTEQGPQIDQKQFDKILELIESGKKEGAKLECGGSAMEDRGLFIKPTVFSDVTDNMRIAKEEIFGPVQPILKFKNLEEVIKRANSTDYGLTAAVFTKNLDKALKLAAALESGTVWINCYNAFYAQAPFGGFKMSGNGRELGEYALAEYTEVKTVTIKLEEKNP
# Excerpt: Recombinant enzyme and inhibitor added immediately before assay. Reaction rate measured by resorufin fluorescence.
# [3] = molecular target: T3, hALDH1a2 (Homo sapiens, UniProt O94788); assay: Aldh1a2 enzyme inhibition assay (resorufin fluorescence), human enzyme
# T3 construct: made in house; host or cells: E. coli BL21-DE3
# T3 sequence (O94788 1-518): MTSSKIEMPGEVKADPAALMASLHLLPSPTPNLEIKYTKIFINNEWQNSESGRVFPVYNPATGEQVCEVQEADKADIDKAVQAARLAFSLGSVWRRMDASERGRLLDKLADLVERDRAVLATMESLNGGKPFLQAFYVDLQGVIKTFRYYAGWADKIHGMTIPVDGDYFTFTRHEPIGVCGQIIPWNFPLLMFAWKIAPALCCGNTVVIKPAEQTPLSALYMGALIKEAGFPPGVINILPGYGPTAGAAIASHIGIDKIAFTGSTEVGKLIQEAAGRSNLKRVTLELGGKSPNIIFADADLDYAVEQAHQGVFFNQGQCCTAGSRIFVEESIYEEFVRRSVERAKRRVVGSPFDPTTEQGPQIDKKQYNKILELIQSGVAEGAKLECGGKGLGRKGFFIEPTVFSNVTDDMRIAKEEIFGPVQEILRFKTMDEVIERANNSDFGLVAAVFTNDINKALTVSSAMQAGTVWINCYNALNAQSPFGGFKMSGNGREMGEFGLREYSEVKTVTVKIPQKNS
# Excerpt: (§1) Recombinant enzyme and inhibitor added immediately before assay. Reaction rate measured by resorufln fluorescence.
# [4] = molecular target: T4, mALDH1a2 (Mus musculus, UniProt Q62148); assay: Aldh1a2 enzyme inhibition assay (resorufin fluorescence), mouse enzyme
# T4 construct: made in house; host or cells: E. coli BL21-DE3
# T4 sequence (Q62148 1-518): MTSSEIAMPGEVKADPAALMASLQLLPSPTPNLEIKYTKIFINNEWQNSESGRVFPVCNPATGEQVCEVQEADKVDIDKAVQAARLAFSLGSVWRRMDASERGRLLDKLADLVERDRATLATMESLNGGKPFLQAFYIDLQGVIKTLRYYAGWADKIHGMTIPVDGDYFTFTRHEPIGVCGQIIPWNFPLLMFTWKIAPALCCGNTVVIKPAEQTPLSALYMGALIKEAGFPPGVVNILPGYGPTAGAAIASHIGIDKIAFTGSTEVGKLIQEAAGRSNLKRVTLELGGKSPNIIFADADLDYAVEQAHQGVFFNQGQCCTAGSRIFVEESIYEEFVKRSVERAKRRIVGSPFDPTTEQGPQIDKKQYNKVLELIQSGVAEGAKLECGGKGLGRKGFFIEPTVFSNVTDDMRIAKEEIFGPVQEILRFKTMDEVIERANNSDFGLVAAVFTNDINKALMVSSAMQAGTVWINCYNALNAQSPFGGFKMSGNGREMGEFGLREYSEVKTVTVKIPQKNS
# Excerpt: as §1
Structure (SMILES),IC50 [1],IC50 [2],IC50 [3],IC50 [4],hAldh1a3 IC50 [1],mAldh1a3 IC50 [2]
Cc1c(Cl)c(NC(=O)c2ncsc2CC(F)(F)F)cc2c1NC(=O)CC2 [Compound 73],< 100 nM,< 100 nM,100 to 250 nM,< 100 nM,,
CCc1ncsc1C(=O)Nc1cc(Cl)c2c(c1)C1CC1C(=O)N2 (stereo not drawn) [Compound 43],100 to 250 nM,< 100 nM,1000 to 5000 nM,1000 to 5000 nM,,
"Cc1ccccc1-c1cnccc1C(=O)Nc1cc(C)c2c(c1)CCC(=O)N2 [Compound 15, N-(8-methyl-2-oxo-1,2,3,4-tetrahydroquinolin-6-yl)-3-(o-tolyl)isonicotinamide]",,,> 5000 nM,> 5000 nM,No activity,No activity
"O=C1CCc2cc(NC(=O)c3scnc3-c3cccc(F)c3)ccc2N1 [Compound 6, 4-(3-fluorophenyl)-N-(2-oxo-1,2,3,4-tetrahydroquinolin-6-yl)thiazole-5-carboxamide]",< 100 nM,100 to 250 nM,1000 to 5000 nM,1000 to 5000 nM,,
Cc1cc(NC(=O)c2scnc2CC(F)(F)F)cc2c1NC(=O)C1CC21 (stereo not drawn) [Compound 33],100 to 250 nM,< 100 nM,< 100 nM,< 100 nM,,
O=C1CCc2cc(NC(=O)c3ccccc3-c3cccc(F)c3)cc(Cl)c2N1 [Compound 24],1000 to 5000 nM,> 5000 nM,100 to 250 nM,250 to 1000 nM,,
CCc1sncc1C(=O)Nc1cc(C)c2c(c1)C1CC1C(=O)N2 (stereo not drawn) [Compound 52],100 to 250 nM,< 100 nM,< 100 nM,100 to 250 nM,,
Cc1ccc(-c2cnccc2C(=O)Nc2cc(C)c3c(c2)CCC(=O)N3)cc1 [Compound 13],,,> 5000 nM,> 5000 nM,No activity,No activity
Cc1cc(NC(=O)c2ocnc2CC(F)(F)F)cc2c1NC(=O)C1CC21 (stereo not drawn) [Compound 82],100 to 250 nM,100 to 250 nM,100 to 250 nM,100 to 250 nM,,
"Cc1cc(OCCN(C)C(=O)c2cccc(F)c2)cc2c1NC(=O)CC2 [Compound 9, 3-fluoro-N-methyl-N-(2-((8-methyl-2-oxo-1,2,3,4-tetrahydroquinolin-6-yl)oxy)ethyl)benzamide]",> 5000 nM,> 5000 nM,1000 to 5000 nM,1000 to 5000 nM,,

# More lines, now with the values ahead:
IC50 [1],IC50 [2],IC50 [3],IC50 [4],hAldh1a3 IC50 [1],mAldh1a3 IC50 [2],Structure (SMILES)
100 to 250 nM,100 to 250 nM,250 to 1000 nM,250 to 1000 nM,,,CCCc1ncsc1C(=O)Nc1cc(C)c2c(c1)CCC(=O)N2 [Compound 66]
1000 to 5000 nM,100 to 250 nM,1000 to 5000 nM,1000 to 5000 nM,,,CCc1scnc1C(=O)Nc1cc(Cl)c2c(c1)CCC(=O)N2 [Compound 44]
100 to 250 nM,< 100 nM,250 to 1000 nM,250 to 1000 nM,,,Cc1cc(NC(=O)c2scnc2CC(F)(F)F)cc2c1NC(=O)CC2 [Compound 31]
,,1000 to 5000 nM,1000 to 5000 nM,No activity,No activity,Cc1cc(NC(=O)c2ccncc2-c2cccc(O)c2)cc2c1NC(=O)CC2 [Compound 18]
100 to 250 nM,< 100 nM,100 to 250 nM,100 to 250 nM,,,CCc1cnsc1C(=O)Nc1cc(C)c2c(c1)CCC(=O)N2 [Compound 48]
